We go through 2 molecules from patent US9474780B2, “GIP and GLP-1 co-agonist compounds” (Eli Lilly and Company, priority 2015, dated 2016).

For data set [1], the target named is T1, human GLP-1R (Homo sapiens, UniProt P43220).
T1 construct: expressed in transfected cells; host or cells: 293HEK, Hygromycin-selected; crude plasma membranes
Description: Functional hGLP-1R cAMP assay in HEK-293 clonal cells. In kind it is cell-based. The note with it: HEK293; percent of maximal response of hGLP-1(7-36)NH2. On the technique in general: Changes in cAMP serve as a functional read-out for many G protein-coupled receptors.
Description: After an incubation of 60 minutes at room temperature, the resulting increase in intracellular cAMP is quantitatively determined using the CisBio cAMP Dynamic 2 HTRF Assay Kit (Bedford, Mass.). Briefly, cAMP levels within the cell are detected by adding the cAMP-d2 conjugate in cell lysis buffer (20 μl) followed by the antibody anti-cAMP-Eu^3+-Cryptate, also in cell lysis buffer (20 μl). The resulting competitive assay is incubated for at least 60 minutes at room temperature, then detected using a PerkinElmer Envision® instrument with excitation at 320 nm and emission at 665 nm and 620 nm Envision units (emission at 665 nm/620 nm*10,000) are inversely proportional to the amount of cAMP present and are converted to nM cAMP per well using a cAMP standard curve. […] A relative EC50 value and percent top (Emax) is derived by non-linear regression analysis using the percent maximal response versus the concentration of the compound of the present invention, fitted to a four-parameter logistic equation.

The nature of data set [2]: Pharmacokinetics in cynomolgus monkeys. Type of data set: in vivo. The note with it: cynomolgus monkey, plasma, single SC 0.2 mg/kg, male monkeys, n = 2. How it is done: The compounds are administered by a single intravenous or subcutaneous dose (0.2 mg/kg) in 20 mM citrate buffer (pH 7.0) at a volume of 0.21 ml/kg. Blood is collected from each animal at 2, 4, 8, 12, 24, 48, 72, 96, 120, 144, 168, 204, 240, and 312 hours post-dosage. The plasma concentrations of compounds of the present invention are determined by a LC/MS method. Briefly, a compound of the present invention is extracted from 100% Monkey plasma sample (50 μl) diluted with 1×PBS (150 μl) and mixed with N-butanol (400 μl). Three distinct liquid layers are formed with the compound located in the top layer. A volume of 200 μl is transferred to a v-bottom 96-well plate, dried down using heated Nitrogen gas and reconstituted with 100 μl of 30% acetonitrile/0.1% formic acid. 20 μl of the reconstituted sample is injected onto a Supelco Analytical Discovery bio wide C5 3 μm column. The column effluent is directed into a Thermo Q-Exactive mass spectrometer for detection and quantitation.

The target in data set [3] is Human GCGR (Homo sapiens, UniProt P47871). Description: Functional hGCGR cAMP assay in HEK-293 clonal cells.
Human GCGR, sequence (P47871 26-477): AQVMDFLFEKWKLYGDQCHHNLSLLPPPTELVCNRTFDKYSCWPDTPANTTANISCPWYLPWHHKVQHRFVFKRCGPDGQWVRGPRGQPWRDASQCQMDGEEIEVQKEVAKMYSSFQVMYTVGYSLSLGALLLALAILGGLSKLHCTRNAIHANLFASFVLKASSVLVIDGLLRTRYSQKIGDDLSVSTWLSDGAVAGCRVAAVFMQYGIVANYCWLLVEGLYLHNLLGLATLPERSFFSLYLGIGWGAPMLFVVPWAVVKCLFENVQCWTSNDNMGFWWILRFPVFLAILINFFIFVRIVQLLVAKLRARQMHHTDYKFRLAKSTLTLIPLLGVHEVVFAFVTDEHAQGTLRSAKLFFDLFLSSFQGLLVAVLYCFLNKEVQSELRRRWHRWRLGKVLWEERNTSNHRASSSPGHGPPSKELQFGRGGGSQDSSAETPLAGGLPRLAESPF
The target in data set [4] is T2, human GIP-R (Homo sapiens, UniProt P48546).
T2 sequence (P48546 22-466): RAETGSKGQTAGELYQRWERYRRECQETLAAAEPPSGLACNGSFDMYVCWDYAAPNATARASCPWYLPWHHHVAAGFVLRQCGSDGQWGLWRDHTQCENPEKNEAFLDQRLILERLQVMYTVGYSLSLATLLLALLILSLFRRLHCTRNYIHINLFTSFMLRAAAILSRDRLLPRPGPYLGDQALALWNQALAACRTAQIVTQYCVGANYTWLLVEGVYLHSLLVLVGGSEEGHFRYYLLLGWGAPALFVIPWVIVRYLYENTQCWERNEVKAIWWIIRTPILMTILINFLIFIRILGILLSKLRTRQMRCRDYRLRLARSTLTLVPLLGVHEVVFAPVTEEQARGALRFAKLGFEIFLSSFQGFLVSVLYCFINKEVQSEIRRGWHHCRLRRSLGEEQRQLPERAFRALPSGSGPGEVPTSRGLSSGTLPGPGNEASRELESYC
Description: Functional hGIP-R cAMP assay in HEK-293 clonal cells. The note with it: HEK293, read-out: Human GIP-R Emax.

The nature of data set [5]: Rat in vivo insulin secretion following intravenous glucose (IVGTT). Particulars: s.c. 16 hour prior to glucose. How it is done: Male Wistar rats (Harlan Labs, Indianapolis, Ind.) are randomized by body weight and dosed 1.5 ml/kg s.c. 16 hour prior to glucose administration and then fasted. Doses are vehicle, 0.1, 0.3, 1, 3 and 10 nmol/kg. Animals are weighed, and then anesthetized with sodium pentobarbital (Nembutal Sodium solution; Ovation Pharmaceuticals) dosed i.p. (65 mg/kg, 30 mg/ml). A time zero blood sample is collected into EDTA tubes after which glucose is administered ([…], 5 ml/kg). Blood samples are collected at 2, 4, 6, 10, 20, and 30 minutes post glucose. Plasma glucose levels are determined using a Hitachi analyzer (Roche) and plasma insulin is measured by the MSD insulin assay (Meso Scale, Gaithersburg, Md.).

Data set [6] can be described thus: Weight loss, body composition and hepatic steatosis in DIO mice. In kind it is in vivo, mouse. Particulars: for Blood Glucose: Day 15. How it is done:
The effects on weight loss, body composition and hepatic steatosis in DIO mice for compounds of the present invention are evaluated in C57/BL6 DIO mice. […] Animals are individually housed in a temperature-controlled (24° C.) facility with a 12 hour light/dark cycle (lights on 22:00), and free access to food and water. […] Daily body weight and food intake are measured throughout the study. Absolute changes in body weight are calculated by subtracting the body weight of the same animal prior to the first injection of compound. […] On Day 15, blood glucose is measured with Accu-Chek glucometer (Roche) from tail vein blood and then animals may be sacrificed and livers removed and frozen. Liver triglycerides, determined from homogenates of livers collected at sacrifice, and plasma cholesterol are measured on a Hitachi Modular P clinical analyzer. Statistical comparisons between groups are done using one-way ANOVA followed by Dunnett's multiple comparison test. The ED50 for weight loss lowering is determined in GraphPad Prism using the non-linear fit tool.

Numbered stars: 1 amine (or outer) side, 2 acyl side, 3 side chain; on linkers, the order of the positions; unused ones are H or OH. Square brackets hold non-standard residues; d marks the D form. Side chains are listed from the residue outwards. Peptide text beside a SMILES is read from it. * marks the point of attachment. C20 diacid = O=C(O)CCCCCCCCCCCCCCCCCCC(=O)*; γGlu = O=C(O)[C@H](CCC(=O)[*:2])N[*:1]; 1Nal = N[C@@H](Cc1cccc2ccccc12)C(=O)O; AEEA = NCCOCCOCC(=O)O; Aib = CC(C)(N)C(=O)O Bounds are passed on as bounds.

A word on the Emax: it is the size of the effect at its maximum, as opposed to the concentration needed. The CL/F is the apparent clearance, not corrected for the fraction that reaches the circulation. As a reminder, the Cmax is the peak of the concentration-time curve. By Tmax is commonly meant the time from dosing to the highest level. The term EC50 denotes the concentration that produces a half-maximal response.

T1 sequence (P43220 24-463): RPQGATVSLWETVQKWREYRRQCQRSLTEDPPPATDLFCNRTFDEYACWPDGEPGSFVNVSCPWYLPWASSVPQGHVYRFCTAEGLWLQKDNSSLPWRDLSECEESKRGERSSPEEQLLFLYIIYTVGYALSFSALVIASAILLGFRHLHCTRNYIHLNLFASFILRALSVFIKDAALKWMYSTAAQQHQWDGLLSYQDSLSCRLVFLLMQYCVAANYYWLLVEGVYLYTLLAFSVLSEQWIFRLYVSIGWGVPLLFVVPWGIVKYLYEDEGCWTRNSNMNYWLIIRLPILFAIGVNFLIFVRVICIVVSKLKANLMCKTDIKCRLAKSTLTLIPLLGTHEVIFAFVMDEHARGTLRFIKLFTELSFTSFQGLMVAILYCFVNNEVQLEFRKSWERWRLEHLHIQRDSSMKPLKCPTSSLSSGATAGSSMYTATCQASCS

In data set [1], `CC[C@H](C)[C@H](NC(=O)[C@H](CC(C)C)NC(=O)[C@H](Cc1c[nH]c2ccccc12)NC(=O)[C@H](CCC(N)=O)NC(=O)[C@@H](NC(=O)[C@H](Cc1cccc2ccccc12)NC(=O)[C@H](C)NC(=O)[C@H](CCCCNC(=O)COCCOCCNC(=O)COCCOCCNC(=O)CC[C@H](NC(=O)CC[C@H](NC(=O)CCCCCCCCCCCCCCCCCCC(=O)O)C(=O)O)C(=O)O)NC(=O)[C@H](CCC(N)=O)NC(=O)[C@H](C)NC(=O)[C@@H](NC(=O)[C@H](CCCCN)NC(=O)[C@H](CC(=O)O)NC(=O)[C@H](CC(C)C)NC(=O)C(C)(C)NC(=O)[C@@H](NC(=O)[C@H](CO)NC(=O)[C@H](Cc1ccc(O)cc1)NC(=O)[C@H](CC(=O)O)NC(=O)[C@H](CO)NC(=O)[C@@H](NC(=O)[C@H](Cc1ccccc1)NC(=O)[C@@H](NC(=O)CNC(=O)[C@H](CCC(=O)O)NC(=O)C(C)(C)NC(=O)[C@@H](N)Cc1ccc(O)cc1)[C@@H](C)O)[C@@H](C)O)[C@@H](C)CC)[C@@H](C)CC)C(C)C)C(=O)N[C@@H](C)C(=O)NCC(=O)NCC(=O)N1CCC[C@H]1C(=O)N[C@@H](CO)C(=O)N[C@@H](CO)C(=O)NCC(=O)N[C@@H](C)C(=O)N1CCC[C@H]1C(=O)N1CCC[C@H]1C(=O)N1CCC[C@H]1C(=O)N[C@@H](CO)C(N)=O` [Example 2] (H-Y[Aib]EGTFTSDYSI[Aib]LDKIAQK([AEEA-AEEA-γGlu-γGlu-C20 diacid])A[1Nal]VQWLIAGGPSSGAPPPS-NH2) returned an Emax of 98.2 ± 5.5%. In data set [2], this molecule showed a CL/F of 1.2 mL/h/kg and a Cmax of 2100 ng/mL. The AUC(0-inf) in data set [2] (read-out: Mean AUC0-inf) worked out at 173 µg·h/mL. In addition, the half-life in data set [2] (read-out: Mean T1/2 (converted)) was 43 h. The Tmax in data set [2] (read-out: Mean Tmax) was determined as 24 h. Besides, in data set [3], the EC50 is above 1000 nM. In addition, the Emax in data set [4] came out at 94.7 ± 2%.

For `CC[C@H](C)[C@H](NC(=O)[C@H](CC(C)C)NC(=O)[C@H](Cc1c[nH]c2ccccc12)NC(=O)[C@H](CCC(N)=O)NC(=O)[C@@H](NC(=O)[C@H](Cc1ccccc1)NC(=O)[C@H](C)NC(=O)[C@H](CCCCNC(=O)COCCOCCNC(=O)COCCOCCNC(=O)CC[C@H](NC(=O)CC[C@H](NC(=O)CCCCCCCCCCCCCCCCCCC(=O)O)C(=O)O)C(=O)O)NC(=O)[C@H](CCC(N)=O)NC(=O)[C@H](C)NC(=O)[C@@H](NC(=O)[C@H](CCCCN)NC(=O)[C@H](CC(=O)O)NC(=O)[C@H](CC(C)C)NC(=O)C(C)(C)NC(=O)[C@@H](NC(=O)[C@H](CO)NC(=O)[C@H](Cc1ccc(O)cc1)NC(=O)[C@H](CC(=O)O)NC(=O)[C@H](CO)NC(=O)[C@@H](NC(=O)[C@H](Cc1ccccc1)NC(=O)[C@@H](NC(=O)CNC(=O)[C@H](CCC(=O)O)NC(=O)C(C)(C)NC(=O)[C@@H](N)Cc1ccc(O)cc1)[C@@H](C)O)[C@@H](C)O)[C@@H](C)CC)[C@@H](C)CC)C(C)C)C(=O)N[C@@H](C)C(=O)NCC(=O)NCC(=O)N1CCC[C@H]1C(=O)N[C@@H](CO)C(=O)N[C@@H](CO)C(=O)NCC(=O)N[C@@H](C)C(=O)N1CCC[C@H]1C(=O)N1CCC[C@H]1C(=O)N1CCC[C@H]1C(=O)N[C@@H](CO)C(N)=O` [Example 5], the Emax in data set [1] worked out at 105 ± 4%; in data set [4], 105 ± 2%. Moreover, the “% max increase of insulin AUC” value in data set [5] was 349 +/− 39%. The “ED50 for insulin, rat IVGTT” value in data set [5] is 1.02 nmol/kg. Moreover, the “% Change from starting body weight” value is on record as −23.42 ± 1.43 % in data set [6] (Table 9, 10 nmol/kg); −26.84 ± 3.14 % in data set [6] (Table 9, 30 nmol/kg); −37.86 ± 2.25 % in data set [6] (Table 9, 100 nmol/kg). The “% Change from starting fat mass” value in data set [6] (Table 9, 10 nmol/kg) is reported as −51.28 ± 1.89 %; in data set [6] (Table 9, 30 nmol/kg) it was −62.77 ± 5.49 %; in data set [6] (Table 9, 100 nmol/kg) it was −81.08 ± 1.68 %. Further, the “Liver Triglycerides” value in data set [6] (Table 12, 10 nmol/kg) is on record as 48.30 ± 8.14 mg/g tissue; in data set [6] (Table 12, 30 nmol/kg), 39.60 ± 4.71 mg/g tissue; in data set [6] (Table 12, 100 nmol/kg), 67.96 ± 13.53 mg/g tissue. For the same molecule, the “Plasma Cholesterol” value in data set [6] (Table 12, 10 nmol/kg) is 126.6 ± 9.67 mg/dL; in data set [6] (Table 12, 30 nmol/kg), 108.2 ± 13.84 mg/dL; in data set [6] (Table 12, 100 nmol/kg), 108.6 ± 4.83 mg/dL. Moreover, the “Blood Glucose” value in data set [6] (Table 12, 10 nmol/kg) worked out at 111.00 ± 6.56 mg/dL; in data set [6] (Table 12, 30 nmol/kg), 104.5 ± 5.30 mg/dL; in data set [6] (Table 12, 100 nmol/kg) it was 105.3 ± 6.16 mg/dL. Besides, in data set [3], the EC50 was above 1000 nM.
